{
  "source": "ChEMBL document CHEMBL4340543",
  "about": "“Synthesis and biological evaluation of new HIV-1 protease inhibitors with purine bases as P2-ligands” (Bioorg Med Chem Lett, 2019)",
  "target": "Protease (Human immunodeficiency virus 1, UniProt Q9YQ12)",
  "sequence (Q9YQ12 whole entry)": "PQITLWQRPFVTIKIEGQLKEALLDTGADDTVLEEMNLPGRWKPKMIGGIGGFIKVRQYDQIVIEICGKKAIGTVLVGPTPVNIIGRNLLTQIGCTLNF",
  "assay": "Inhibition of wild type HIV1 protease expressed in Escherichia coli using Arg-Glu (EDANS)-Ser-Gln-Asn-Tyr-Pro-Ile-Val-Gln-Lys(DABCYL)-Arg as substrate preincubated for 20 to 30 mins followed by substrate addition and measured for 10 mins by FRET assay",
  "data": [
    {"compound": "CC(C)CN(C[C@@H](O)[C@H](Cc1ccccc1)NC(=O)Cn1cnc2c(N)ncnc21)S(=O)(=O)c1ccc([N+](=O)[O-])cc1", "values": [
      {"measurement": "IC50", "result": 3.58, "unit": "µM"}
    ]},
    {"compound": "CC(C)CN(C[C@@H](O)[C@H](Cc1ccccc1)NC(=O)Cn1cnc2cnc(N)nc21)S(=O)(=O)c1ccc([N+](=O)[O-])cc1", "values": [
      {"measurement": "IC50", "result": 3.68, "unit": "µM"}
    ]},
    {"compound": "CC(C)CN(C[C@@H](O)[C@H](Cc1ccccc1)NC(=O)Cn1cnc2c(Cl)nc(N)nc21)S(=O)(=O)c1ccc(N)cc1", "values": [
      {"measurement": "IC50", "result": 11.7, "unit": "µM"}
    ]},
    {"compound": "CC(C)CN(C[C@@H](O)[C@H](Cc1ccccc1)NC(=O)Cn1cnc2cncnc21)S(=O)(=O)c1ccc(N)cc1", "values": [
      {"measurement": "IC50", "result": 0.57, "unit": "µM"}
    ]},
    {"compound": "Cc1nc2cncnc2n1CC(=O)N[C@@H](Cc1ccccc1)[C@H](O)CN(CC(C)C)S(=O)(=O)c1ccc(N)cc1", "values": [
      {"measurement": "IC50", "result": 0.64, "unit": "µM"}
    ]},
    {"compound": "COc1ncnc2c1ncn2CC(=O)N[C@@H](Cc1ccccc1)[C@H](O)CN(CC(C)C)S(=O)(=O)c1ccc([N+](=O)[O-])cc1", "values": [
      {"measurement": "IC50", "result": 2.6, "unit": "µM"}
    ]},
    {"compound": "COc1ccc(S(=O)(=O)N(CC(C)C)C[C@@H](O)[C@H](Cc2ccccc2)NC(=O)Cn2cnc3c(N)ncnc32)cc1", "values": [
      {"measurement": "IC50", "result": 1.98, "unit": "µM"}
    ]},
    {"compound": "CC(C)CN(C[C@@H](O)[C@H](Cc1ccccc1)NC(=O)Cn1cnc2c(Cl)ncnc21)S(=O)(=O)c1ccc(N)cc1", "values": [
      {"measurement": "IC50", "result": 7.02, "unit": "µM"}
    ]},
    {"compound": "CC(C)CN(C[C@@H](O)[C@H](Cc1ccccc1)NC(=O)Cn1cnc2c(O)ncnc21)S(=O)(=O)c1ccc(N)cc1", "values": [
      {"measurement": "IC50", "result": 1.81, "unit": "µM"}
    ]},
    {"compound": "CC(C)CN(C[C@@H](O)[C@H](Cc1ccccc1)NC(=O)Cn1cnc2c(Cl)nc(N)nc21)S(=O)(=O)c1ccc([N+](=O)[O-])cc1", "values": [
      {"measurement": "IC50", "result": 0.96, "unit": "µM"}
    ]},
    {"compound": "COc1nc(N)nc2c1ncn2CC(=O)N[C@@H](Cc1ccccc1)[C@H](O)CN(CC(C)C)S(=O)(=O)c1ccc([N+](=O)[O-])cc1", "values": [
      {"measurement": "IC50", "result": 1.73, "unit": "µM"}
    ]},
    {"compound": "Cc1ncnc2c1ncn2CC(=O)N[C@@H](Cc1ccccc1)[C@H](O)CN(CC(C)C)S(=O)(=O)c1ccc(N)cc1", "values": [
      {"measurement": "IC50", "result": 3.76, "unit": "µM"}
    ]},
    {"compound": "CC(C)CN(C[C@@H](O)[C@H](Cc1ccccc1)NC(=O)Cn1cnc2cnc(N)nc21)S(=O)(=O)c1ccc(N)cc1", "values": [
      {"measurement": "IC50", "result": 6.79, "unit": "µM"}
    ]},
    {"compound": "CC(C)CN(C[C@@H](O)[C@H](Cc1ccccc1)NC(=O)Cn1cnc2c(O)ncnc21)S(=O)(=O)c1ccc([N+](=O)[O-])cc1", "values": [
      {"measurement": "IC50", "result": 2.43, "unit": "µM"}
    ]},
    {"compound": "Cc1nc2cncnc2n1CC(=O)N[C@@H](Cc1ccccc1)[C@H](O)CN(CC(C)C)S(=O)(=O)c1ccc([N+](=O)[O-])cc1", "values": [
      {"measurement": "IC50", "result": 0.57, "unit": "µM"}
    ]},
    {"compound": "CC(C)CN(C[C@@H](O)[C@H](Cc1ccccc1)NC(=O)Cn1cnc2c(O)nc(N)nc21)S(=O)(=O)c1ccc([N+](=O)[O-])cc1", "values": [
      {"measurement": "IC50", "result": 0.79, "unit": "µM"}
    ]},
    {"compound": "COc1ccc(S(=O)(=O)N(CC(C)C)C[C@@H](O)[C@H](Cc2ccccc2)NC(=O)Cn2c(C)nc3cncnc32)cc1", "values": [
      {"measurement": "IC50", "result": 0.15, "unit": "µM"}
    ]},
    {"compound": "COc1ccc(S(=O)(=O)N(CC(C)C)C[C@@H](O)[C@H](Cc2ccccc2)NC(=O)Cn2cnc3cncnc32)cc1", "values": [
      {"measurement": "IC50", "result": 0.24, "unit": "µM"}
    ]},
    {"compound": "COc1ccc(S(=O)(=O)N(CC(C)C)C[C@@H](O)[C@H](Cc2ccccc2)NC(=O)Cn2cnc3c(OC)ncnc32)cc1", "values": [
      {"measurement": "IC50", "result": 0.18, "unit": "µM"}
    ]},
    {"compound": "CC(C)CN(C[C@@H](O)[C@H](Cc1ccccc1)NC(=O)Cn1cnc2c(Cl)ncnc21)S(=O)(=O)c1ccc([N+](=O)[O-])cc1", "values": [
      {"measurement": "IC50", "result": 0.31, "unit": "µM"}
    ]},
    {"compound": "COc1ncnc2c1ncn2CC(=O)N[C@@H](Cc1ccccc1)[C@H](O)CN(CC(C)C)S(=O)(=O)c1ccc(N)cc1", "values": [
      {"measurement": "IC50", "result": 1.51, "unit": "µM"}
    ]},
    {"compound": "COc1ccc(S(=O)(=O)N(CC(C)C)C[C@@H](O)[C@H](Cc2ccccc2)NC(=O)Cn2cnc3c(OC)nc(N)nc32)cc1", "values": [
      {"measurement": "IC50", "result": 0.46, "unit": "µM"}
    ]},
    {"compound": "COc1ccc(S(=O)(=O)N(CC(C)C)C[C@@H](O)[C@H](Cc2ccccc2)NC(=O)Cn2cnc3c(O)nc(N)nc32)cc1", "values": [
      {"measurement": "IC50", "result": 0.08, "unit": "µM"}
    ]},
    {"compound": "CC(C)CN(C[C@@H](O)[C@H](Cc1ccccc1)NC(=O)Cn1cnc2c(O)nc(N)nc21)S(=O)(=O)c1ccc(N)cc1", "values": [
      {"measurement": "IC50", "result": 4.73, "unit": "µM"}
    ]},
    {"compound": "COc1ccc(S(=O)(=O)N(CC(C)C)C[C@@H](O)[C@H](Cc2ccccc2)NC(=O)Cn2cnc3c(C)ncnc32)cc1", "values": [
      {"measurement": "IC50", "result": 0.042, "unit": "µM"}
    ]},
    {"compound": "Cc1ncnc2c1ncn2CC(=O)N[C@@H](Cc1ccccc1)[C@H](O)CN(CC(C)C)S(=O)(=O)c1ccc([N+](=O)[O-])cc1", "values": [
      {"measurement": "IC50", "result": 2.53, "unit": "µM"}
    ]},
    {"compound": "COc1ccc(S(=O)(=O)N(CC(C)C)C[C@@H](O)[C@H](Cc2ccccc2)NC(=O)Cn2cnc3c(O)ncnc32)cc1", "values": [
      {"measurement": "IC50", "result": 0.068, "unit": "µM"}
    ]},
    {"compound": "CC(C)CN(C[C@@H](O)[C@H](Cc1ccccc1)NC(=O)Cn1cnc2cncnc21)S(=O)(=O)c1ccc([N+](=O)[O-])cc1", "values": [
      {"measurement": "IC50", "result": 2.58, "unit": "µM"}
    ]},
    {"compound": "COc1ccc(S(=O)(=O)N(CC(C)C)C[C@@H](O)[C@H](Cc2ccccc2)NC(=O)Cn2cnc3cnc(N)nc32)cc1", "values": [
      {"measurement": "IC50", "result": 0.36, "unit": "µM"}
    ]},
    {"compound": "COc1nc(N)nc2c1ncn2CC(=O)N[C@@H](Cc1ccccc1)[C@H](O)CN(CC(C)C)S(=O)(=O)c1ccc(N)cc1", "values": [
      {"measurement": "IC50", "result": 0.19, "unit": "µM"}
    ]},
    {"compound": "COc1ccc(S(=O)(=O)N(CC(C)C)C[C@@H](O)[C@H](Cc2ccccc2)NC(=O)Cn2cnc3c(Cl)ncnc32)cc1", "values": [
      {"measurement": "IC50", "result": 0.043, "unit": "µM"}
    ]},
    {"compound": "CC(C)CN(C[C@@H](O)[C@H](Cc1ccccc1)NC(=O)Cn1cnc2c(N)ncnc21)S(=O)(=O)c1ccc(N)cc1", "values": [
      {"measurement": "IC50", "result": 1.24, "unit": "µM"}
    ]},
    {"compound": "COc1ccc(S(=O)(=O)N(CC(C)C)C[C@@H](O)[C@H](Cc2ccccc2)NC(=O)Cn2cnc3c(Cl)nc(N)nc32)cc1", "values": [
      {"measurement": "IC50", "result": 0.57, "unit": "µM"}
    ]}
  ]
}
